Assay results taken from patent publication US5436260A, “Angiotensin II receptor antagonists” (Warner-Lambert Company, priority 1994, dated 1995).
Structures can show the parent of a compound that is named as a salt.

Biological target: T1, AT1 receptor (Rattus norvegicus, UniProt P25095)
T1 construct: rat liver membranes; from tissue; host or cells: rat liver membranes
T1 sequence (P25095 1-359): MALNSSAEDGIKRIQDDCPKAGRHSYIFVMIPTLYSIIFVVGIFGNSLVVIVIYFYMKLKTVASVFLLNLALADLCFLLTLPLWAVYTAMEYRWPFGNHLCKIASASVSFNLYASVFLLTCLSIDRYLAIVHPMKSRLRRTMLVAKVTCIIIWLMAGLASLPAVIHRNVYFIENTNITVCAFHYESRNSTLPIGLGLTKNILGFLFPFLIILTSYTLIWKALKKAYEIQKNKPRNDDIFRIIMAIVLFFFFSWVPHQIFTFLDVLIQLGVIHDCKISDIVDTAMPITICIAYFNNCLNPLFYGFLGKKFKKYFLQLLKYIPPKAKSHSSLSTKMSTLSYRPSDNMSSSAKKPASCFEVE
Experiment: [^3 H]angiotensin II binding to rat liver membranes (AT1 test)
Conditions: inhibition of [^3 H]angiotensin II binding
Description: The compounds of Formula I or Ia are antagonists of angiotensin II. Dudley, D. T., et al, Molecular Pharmacology 1990;38:370-377 reported the existence of 2 subclasses of angiotensin II binding sites in rabbit adrenal gland and uterus and in the rat liver which differ in their tissue distribution and affinity for various peptide and nonpeptide ligands. Thus, the compounds of Formula I or Ia were tested for their ability to inhibit [^3 H]angiotensin II binding to rat liver membranes (AT1 test) according to the methods described by Dudley, D. T., et al, Molecular Pharmacology 1990;38:370-7. […] It is well established that compounds which antagonize the effect of angiotensin II at the AT1 receptor have value for treatment of hypertension and heart failure.

SMILES	IC50 [nM]
CCCCc1ncc(/C=C2/C(=O)N(CCCC)C(=O)N2CC2CCCCC2)n1Cc1ccc(C(=O)OC)cc1 [Example 43, Methyl Z-4-[[2-butyl-5-[[1-butyl-3-(cyclohexylmethyl)-2,5-dioxo-4-imidazolidinylidene]methyl]-1H-imidazol-1-yl]methyl]benzoate mono hydrochloride]	3.33
CCCCc1ncc(/C=C2\NC(=O)N(CCCC)C2=O)n1Cc1ccc(C(=O)OC)cc1 [Example 32a, Methyl Z-4-[[2-butyl-5-[(1-butyl-2,5-dioxo-4-imidazolidinylidene)methyl]-1H-imidazol-1-yl]methyl]benzoate monohydrochloride]	178
CCCCCCN1C(=O)/C(=C/c2cnc(CCCC)n2Cc2ccc(C(=O)OC)cc2)N(Cc2ccccc2)C1=O [Example 50, Methyl Z-4-[[2-butyl-5-[[1-hexyl-2,5-dioxo-3-(phenylmethyl)-4-imidazolidinylidene]methyl]-1H-imidazol-1-yl]methyl]benzoate monohydrochloride]	26.6
CCCCc1ncc(/C=C2/C(=O)N(CCCC)C(=O)N2CCc2ccccc2)n1Cc1ccc(C(=O)OC)cc1 [Example 41, Methyl Z-4-[[2-butyl-5-[[1-butyl-2,5-dioxo-3-(2-phenylethyl)-4-imidazolidinylidene]methyl]-1H-imidazol-1-yl]methyl]benzoate mono hydrochloride]	30.9
CCCCc1ncc(/C=C2/C(=O)N(CCCC)C(=O)N2Cc2ccccn2)n1Cc1ccc(C(=O)OC)cc1 [Example 58, Methyl Z-4-[[2-butyl-5-[[1-butyl-2,5-dioxo-3-(2-pyridinylmethyl)-4-imidazolidinylidene]methyl]-1H-imidazol-1-yl]methyl]benzoate dihydrochloride]	5.81
CCCCc1ncc(/C=C2\C(=O)N(CCCC)C(=O)N2Cc2cccs2)n1Cc1ccc(C(=O)OC)cc1 [Example 24, Methyl E-4-[[2-butyl-5-[[1-butyl-2,5-dioxo-3-(2-thienylmethyl)-4-imidazolidinylidene]methyl]-1H-imidazol-1-yl]methyl]benzoate monohydrochloride]	10.3
CCCCc1ncc(/C=C2/C(=O)NC(=O)N2Cc2cccs2)n1Cc1ccc(C2(C(=O)O)CCCC2)cc1 [Example 26b, Z-1-[4-[[2-butyl-5-[[2,5-dioxo-3-(2-thienylmethyl)-4-imidazolidinylidene]methyl]-1H-imidazol-1-yl]methyl]phenyl]cyclopentanecarboxylic acid]	2.22
CCCCc1ncc(/C=C2/C(=O)N(Cc3cccs3)C(=O)N2Cc2cccs2)n1Cc1ccc(C(=O)O)cc1 [Example 105, Z-4-[[2-Butyl-5-[[2,5-dioxo-1,3-bis(2-thienylmethyl)-4-imidazolidinylidene]methyl]-1H-imidazol-1-yl]methyl]benzoic acid]	1.47
CCCCc1ncc(/C=C2/C(=O)N(CCCC)C(=O)N2Cc2ccccc2)n1Cc1ccc(C(=O)OC)cc1 [Example 36, Methyl Z-4-[[2-butyl-5-[[1-butyl-2,5-dioxo-3-(phenylmethyl)-4-imidazolidinylidene]methyl]-1H-imidazol-1-yl]methyl]benzoate monohydrochloride]	12.4
CCCCc1ncc(/C=C2\C(=O)NC(=O)N2Cc2cccs2)n1Cc1ccc(C2(C(=O)O)CCCC2)cc1 [Example 26a, E-1-[4-[[2-butyl-5-[[2,5-dioxo-3-(2-thienylmethyl)-4-imidazolidinylidene]methyl]-1H-imidazol-1-yl]methyl]phenyl]cyclopentanecarboxylic acid]	2.63
CCCCc1ncc(/C=C2/C(=O)N(CCCC)C(=O)N2Cc2nccn2Cc2ccccc2)n1Cc1ccc(C(=O)OC)cc1 [Example 99]	135
CCCCc1ncc(/C=C2/C(=O)N(CCCC)C(=O)N2Cc2ccno2)n1Cc1ccc(C(=O)OC)cc1 [Example 106, Methyl Z-4-[[2-butyl-5-[[1-butyl-3-(5-isoxazolyl-methyl)-2,5-dioxo-4-imidazolidinylidene]methyl]-1H-imidazol-1-yl]methyl]benzoate monohydrochloride]	10.1
CCCCc1ncc(/C=C2/C(=O)NC(=O)N2Cc2cccs2)n1Cc1ccc(C(=O)O)cc1 [Example 6b]	1.43
CCCCc1ncc(/C=C2/C(=O)N(CCCC)C(=O)N2Cc2csc(Br)c2)n1Cc1ccc(C(=O)OC)cc1 [Example 81, Methyl Z-4-[[5-[[3-[(5-bromo-3-thienyl)methyl]-1-butyl-2,5-dioxo-4-imidazolidinylidene]methyl]-2-butyl-1H-imidazol-1-yl]methyl]benzoate monohydrochloride]	25.4
CCCCc1ncc(/C=C2/C(=O)N(CCCC)C(=O)N2Cc2cccs2)n1Cc1ccc(C(=O)OC)cc1 [Example 23, Methyl Z-4-[[2-butyl-5-[[1-butyl-2,5-dioxo-3-(2-thienylmethyl)-4-imidazolidinylidene]methyl]-1H-imidazol-1-yl]methyl]benzoate monohydrochloride]	3.39
CCCCc1ncc(/C=C2\C(=O)NC(=O)N2CCCC)n1Cc1ccc(-c2ccccc2C(=O)OC)cc1 [Example 96b, Methyl E 4'-[[2-butyl-5-[(3-butyl-2,5-dioxo-4-imidazolidinylidene)methyl]-1H-imidazol-1-yl]methyl][1,1'-biphenyl]-2-carboxylate]	9.86
CCCCc1ncc(/C=C2\C(=O)NC(=O)N2C)n1Cc1ccc(-c2ccccc2-c2nnn[nH]2)cc1 [Example 94, E-5-[[2-butyl-3-[[2'-(1H-tetrazol-5-yl)[1,1'-biphenyl]-4-yl]methyl]-3H-imidazol-4-yl]methylene]1-methyl-2,4-imidazolidinedione]	8.57
CCCCc1ncc(/C=C2/C(=O)N(CCCC)C(=O)N2Cc2ccc([N+](=O)[O-])cc2)n1Cc1ccc(C(=O)OC)cc1 [Example 38, mono hydrochloride]	16.9
CCCCc1ncc(/C=C2/C(=O)N(CCCC)C(=O)N2CCc2cccs2)n1Cc1ccc(C(=O)OC)cc1 [Example 79, Methyl Z-4-[[2-butyl-5-[[1-butyl-2,5-dioxo-3-[2(2-thienyl)ethyl]-4-imidazolidinylidene]methyl]-1H-imidazol-1-yl]methyl]benzoate monohydrochloride]	14.5
CCCCc1ncc(/C=C2/C(=O)N(CC)C(=O)N2Cc2csc(C)n2)n1Cc1ccc(C(=O)OC)cc1 [Example 109, Methyl Z-4-[[2-butyl-5-[[1-ethyl-3-[(2-methyl-4-thiazolyl)methyl]-2,5-dioxo-4-imidazolidinylidene]methyl]-1H-imidazol-1-yl]methyl]benzoate dihydrochloride]	11.1
CCCCc1ncc(CC2C(=O)NC(=O)N2CCCC)n1Cc1ccc(-c2ccccc2-c2nnn[nH]2)cc1 (centres unmarked) [Example 95, 1-Butyl-5-[[2-butyl-3-[[2'-(1H-tetrazol-5-yl)[1,1'-biphenyl]-4yl]methyl]-3H-imidazol-4-yl]methyl]-2,4-imidazolidinedione]	2.67
CCCCc1ncc(/C=C2\C(=O)NC(=O)N2CCCC)n1Cc1ccc(C(=O)OC)cc1Cl [Example 87b]	7.32
CCCCCCN1C(=O)/C(=C/c2cnc(CCCC)n2Cc2ccc(C(=O)OC)cc2)N(Cc2csc(C)n2)C1=O [Example 51, Methyl Z-4-[[2-butyl-5-[1-hexyl-3-[(2-methyl-4-thiazolyl)methyl-2,5-dioxo-4-imidazolidinylidene]methyl]-1H-imidazol-1-yl]methyl]benzoate dihydrochloride]	5.33
CCCCc1ncc(/C=C2/C(=O)NC(=O)N2C)n1Cc1ccc(-c2ccccc2-c2nnn[nH]2)cc1 [Example 93, Z-5-[[2-butyl-3-[[2'-(1H-tetrazol-5-yl)[1,1 '-biphenyl]-4-yl]methyl]-3H-imidazol-4-yl]methylene]1-methyl-2,4-imidazolidinedione]	5.51
CCCCc1ncc(/C=C2\C(=O)NC(=O)N2CCCC)n1Cc1ccc(C(=O)OC)cc1 [Example 15a, (E)-4-[[2-Butyl-5-[(3-butyl-2,5-dioxo-4-imidazolidinylidene)methyl]-1H-imidazole-1-yl]methyl]benzoic acid, methyl ester]	10.9
CCCCc1ncc(/C=C2/C(=O)N(CCCC)C(=O)N2Cc2cc(Br)cs2)n1Cc1ccc(C(=O)OC)cc1 [Example 78, Methyl Z-4-[[5-[[3-[(4-bromo-2-thienyl)methyl]-1-butyl-2,5-dioxo-4-imidazolidinylidene]methyl]-2-butyl-1H-imidazol-1-yl]methyl]benzoate monohydrochloride]	21.9
CCCCc1ncc(/C=C2/C(=O)N(CCCC)C(=O)N2Cc2cccs2)n1Cc1ccc(C(=O)O)cc1 [Example 25]	6.39
CCCCc1ncc(/C=C2/C(=O)NC(=O)N2CCCC)n1Cc1ccc(-c2ccccc2C(=O)OC)cc1 [Example 96a]	15.9
CCCCc1ncc(/C=C2/C(=O)N(CCCC)C(=O)N2Cc2ccc(Br)s2)n1Cc1ccc(C(=O)OC)cc1 [Example 77, Methyl Z-4-[[5-[[3-[(5-bromo-2-thienyl)methyl]-1-butyl-2,5-dioxo-4-imidazolidinylidene]methyl]-2-butyl-1H-imidazol-1-yl]methyl]benzoate monohydrochloride]	17.8
